Results: patent publication US20240199555A1, “APPLICATIONS OF BIASED LIGANDS OF THE SEROTONIN 5-HT7 RECEPTOR FOR THE TREATMENT OF PAIN, MULTIPLE SCLEROSIS AND THE CONTROL OF THERMOREGULATION” (Centre National de la Recherche Scientifique, priority 2021, published 2024)

Columns and labels:
human 5-HT2A receptor = human 5-HT2A receptor (Homo sapiens (Human), UniProt P28223); assay: Radioligand binding competition, 5-HT2A; conditions: selectivity panel
Sprague-Dawley male rats = assay: Formalin induced inflammatory pain model; type: in vivo; conditions: single s.c., Serodolin 10 mg/kg, MOA51 1 mg/kg, morphine
Description: FIG. 18: Effect of a single administration of Serodolin (AIC01) or MOA51 in the formalin test in rats. Effect of a single subcutaneous administration of Serodolin (AIC01) or MOA51 in the formalin test in rats. In this test, Sprague-Dawley male rats received unilateral injection of a 2.5% formalin solution (50 μl) into the plantar aspect of the hindpaw on testing day (i.e. D0). Control group received Vehicle (20% DMSO/5% Tween 80/NaCl). Serodolin was subcutaneously (sc) administrated at 10 mg/kg and MOA51 at 1 mg/kg. Positive control animals were treated with morphine (3 mg/kg, sc). Paw licking time was measured. Results are expressed as mean±s.e.m. Percentage are expressed as decreased as compared to the vehicle-treated group and represented as figure (B). ***: p<0.001 as compared to the vehicle-treated group, Bonferroni's test after significant Two-way Repeated Measures ANOVA. NS: Non-significant.
Sprague-Dawley male rats (n=10 rats per group) received unilateral injection of a 2.5% formalin solution (50 μl) into the plantar aspect of the hindpaw on testing day (i.e. D0). Experience was separated into 4 groups of animals. Formalin animals+vehicle-treated group; […]—Formalin animals+Sponsor's Serodolin (10 mg/kg), s.c.—Formalin animals+Sponsor's MOA51 (1 mg/kg), s.c.—Formalin animals+internal validator-treated group (Morphine at 4 mg/Kg, s.c.). Single subcutaneous administration of the Vehicle and Sponsor's Compound 30 min (or other timing depending on Sponsor's design) before formalin injection on testing day (i.e. D0)/Subcutaneous administration of Morphine 30 min before formalin injection on testing day (i.e. D0). Hindpaw licking time recorded in consecutive 5 minutes periods from 0 to 5 minutes (early phase) and 17 to 27 minutes (late phase) after formalin injection.
We evaluated the effect of Serodolin as well as MOA51 in rats in the formalin test, an acute and tonic pain model based on the use of a chemical stimulus. Subcutaneous injection of formalin into the right hindpaw produces a biphasic painful response of increasing and decreasing intensity for about 30 minutes after the injection. […] Although not significant, Serodolin, MOA51 and morphine have an inhibitory effect (−40%, −35% and −57% respectively) during the early phase.

mice = assay: MOG-induced experimental autoimmune encephalomyelitis (EAE) model; type: in vivo; conditions: 1 mg/kg, ip, day 8 to day 18
Source text: FIG. 12: Evaluation of the therapeutic potential of Serodolin in EAE model. A/Serodolin has been administrated for 10 days from day 8 after immunization. After 18 days post-immunization, myelin staining and cell infiltration have been evaluated in 3 groups of mice (non-immunized NI, Vehicle-treated mice or Serodolin-treated mice. B/Immunolabeling of astrocytes (GFAP) and microglia (Iba1) performed in all groups. Quantifications used Image J software. **p<0.01 *p<0.05.
Autoimmune experimental encephalomyelitis (EAE) model. For EAE model, the pathology was induced by subcutaneous injection of an emulsion of MOG35-55 peptide in complete Freund's adjuvant as previously described (Terry, Ifergan, & Miller, 2016). The mice were scored blindly once a day starting at Day 7 postimmunization until Day 30 according to the following scale: 0.0=no obvious changes in motor function; 0.5=tip of tail is limp; 1.0=limp tail; 1.5=limp tail and hind leg inhibition; 2.0=limp tail and weakness of hind legs or signs of head tilting; 2.5=limp tail and dragging of hind legs or signs of head tilting; 3.0=limp tail and complete paralysis of hind legs or limb tail with paralysis of one front and one hind leg; 3.5=limp tail and complete paralysis of hind legs and animal unable to right itself when placed on its side; 4.0=limb tail, complete hind leg, and partial front leg paralysis with minimal moving and feeding. Drugs were administered at the onset of clinical symptoms (Day 8) until Day 18 after immunization. Serodolin (1 mg/kg, ip) or vehicle was daily administered. Mice were given Ketamine/Xylasine anaesthesia and then intracardiacally perfused first with PBS EDTA for 20-30 min and then with PFA (paraformaldehyde) 4% for 20-30 min. Spinal cords were removed and incubated first in PFA 4% for 48-72 h and then in sucrose 30% Organ was included in TFM (Tissue freezing media) and snap frozen using isopentane and dry ice. Spinal cord were cut on 14 μm thick sections using Leica CM3050 S Research Cryostat for immunohistochemistry experiments.
The inventors considered that Serodolin could have some benefit effects on some chronic inflammatory processes, like those observed in MS. Myelin oligodendrocyte glycoprotein (MOG)-induced murine experimental autoimmune encephalomyelitis (EAE) is a widely accepted model for studying the clinical and pathological features of multiple sclerosis. After MOG induction of EAE (9 animals/group), the effect of AIC-01 injection was tested for […] (1 mg/kg, ip from day 8 to day 18 after MOG induction). Each animal was assessed by a behavioural test based on motor functions, and an EAE score was obtained. […] Histopathological characteristics performed after MOG-induction allowed to decipher Serodolin effect at molecular and cellular levels. […]

Sequence of human 5-HT2A receptor (P28223 whole entry): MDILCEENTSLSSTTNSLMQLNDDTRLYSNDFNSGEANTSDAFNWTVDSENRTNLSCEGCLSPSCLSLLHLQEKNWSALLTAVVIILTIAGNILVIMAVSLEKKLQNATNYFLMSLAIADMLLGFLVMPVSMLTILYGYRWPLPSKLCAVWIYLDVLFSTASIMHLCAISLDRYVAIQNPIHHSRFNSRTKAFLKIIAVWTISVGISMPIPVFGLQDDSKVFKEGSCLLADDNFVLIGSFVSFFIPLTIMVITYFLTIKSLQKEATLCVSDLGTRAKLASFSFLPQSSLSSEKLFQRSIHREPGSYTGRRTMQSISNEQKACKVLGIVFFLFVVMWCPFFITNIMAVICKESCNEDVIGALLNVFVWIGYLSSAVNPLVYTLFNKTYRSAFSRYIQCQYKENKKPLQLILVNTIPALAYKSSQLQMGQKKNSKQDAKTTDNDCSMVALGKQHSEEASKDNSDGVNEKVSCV

O=c1[nH]c2ccccc2n1CN1CCN(c2ccc(F)cc2)CC1 [Serodolin]
IC50 (human 5-HT2A receptor; read-out: RLB 5-HT2A IC50): 16.9 nM | Ki (human 5-HT2A receptor; read-out: RLB 5-HT2A Ki): 2.8 nM | inhibitory effect on paw licking, early phase (Sprague-Dawley male rats; 0 to 5 minutes, not significant): −40% | inhibition of licking, late phase (Sprague-Dawley male rats; 17 to 27 minutes): −80% | EAE score / onset of symptoms (mice): tended to show a delay in the onset of symptoms | astrocytes and microglia staining (mice): significantly decreased | cell infiltration (DAPI) (mice): reduces cell infiltration | myelin staining, increase over vehicle-treated animals (mice): 65%
